Laboratory results published in patent US20090142323A1, “METHODS FOR TREATING A DISORDER BY REGULATING GPRC6A” (priority 2007, published 2009).

Experiments:
[1] = molecular target: T1, GPRC6A (Mus musculus, UniProt Q8K4Z6); test: phospho-ERK activation in HEK-293 cells transfected with GPRC6A (immunoblot); assay type: cell-based; parameters: expressed in transfected cells; host or cells: HEK-293; conditions: for block of GPRC6A-mediated extracellular testosterone stimulated signaling: either phospho-ERK or SRE-luciferase as read-outs; for inhibition of testosterone stimulated GPRC6A-mediated activation of phospho-ERK: 10 μM PD89059, 50 μM Ly294002, 2 μM U73122, 10 μM PP-1
T1 sequence (Q8K4Z6 21-928): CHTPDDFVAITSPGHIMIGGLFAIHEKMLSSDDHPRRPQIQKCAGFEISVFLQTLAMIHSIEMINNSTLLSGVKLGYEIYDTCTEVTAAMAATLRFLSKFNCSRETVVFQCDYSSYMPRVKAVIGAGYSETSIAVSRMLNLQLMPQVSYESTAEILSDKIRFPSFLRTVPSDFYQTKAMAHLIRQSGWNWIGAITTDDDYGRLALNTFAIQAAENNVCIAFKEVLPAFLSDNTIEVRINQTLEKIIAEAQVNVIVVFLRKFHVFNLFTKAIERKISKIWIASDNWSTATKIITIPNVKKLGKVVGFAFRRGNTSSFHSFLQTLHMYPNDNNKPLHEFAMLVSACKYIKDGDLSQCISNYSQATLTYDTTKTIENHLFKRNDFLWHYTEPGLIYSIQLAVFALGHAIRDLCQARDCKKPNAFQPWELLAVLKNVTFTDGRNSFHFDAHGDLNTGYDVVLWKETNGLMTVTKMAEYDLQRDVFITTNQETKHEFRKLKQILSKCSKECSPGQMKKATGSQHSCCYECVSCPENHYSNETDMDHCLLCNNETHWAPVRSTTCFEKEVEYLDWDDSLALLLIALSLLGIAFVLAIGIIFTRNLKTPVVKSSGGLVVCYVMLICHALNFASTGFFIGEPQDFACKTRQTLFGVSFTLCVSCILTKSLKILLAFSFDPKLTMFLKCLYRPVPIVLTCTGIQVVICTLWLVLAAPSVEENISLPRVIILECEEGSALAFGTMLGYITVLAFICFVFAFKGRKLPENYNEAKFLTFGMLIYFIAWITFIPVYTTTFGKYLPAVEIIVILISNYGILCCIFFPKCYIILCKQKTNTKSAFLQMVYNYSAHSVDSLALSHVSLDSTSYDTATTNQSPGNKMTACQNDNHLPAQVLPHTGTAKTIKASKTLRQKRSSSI
Protocol: (§1) Equal amounts of lysates were subjected to 10% SDS-PAGE, and phospho-ERK1/2 levels were determined by immunoblotting using antiphospho-ERK1/2 mitogen-activated protein kinase antibody (Cell Signaling Technology). […] An anti-peptide antibody was raised in a rabbit against a peptide ([…] (SEQ ID NO: 27)) corresponding to a sequence in the extracellular domain of mouse GPRC6A (in exon 1 of mouse GPRC6A gene) produced by Abgent (San Diego, Calif.). For phospho-ERK, the phospho-ERK1/2 levels were determined by immunoblotting using anti-phospho-ERK1/2 mitogen-activated protein kinase antibody (Cell Signaling Technology). Urinary β2-microglobulin was detected by rabbit polyclonal anti-β2-microglobulin antibody (Abcam Inc.). For aromatase expression analysis, the rabbit polyclonal anti-aromatase antibody (Abcam Inc.) and goat anti-rabbit IgG HRP secondary antibody (Santa Cruz Biotechnology Inc.) were used. Mouse anti-Actin antibody (Santa Cruz Biotechnology Inc.) was used for control protein loading.

[2] = molecular target: T1, GPRC6A; test: SRE-luciferase reporter in HEK-293 cells co-transfected with pcDNA3.mGPRC6A; assay type: cell-based; parameters: expressed in transfected cells; host or cells: HEK-293; conditions: for inhibition of R1881 stimulated GPRC6A-mediated activation of luciferase: SRE-luciferase
Protocol: HEK-293 cells were co-transfected with pcDNA3.mGPRC6A and SRE-luciferase reporter gene plasmid. […] Luciferase activity was assessed after 6 h of stimulation. The luciferase activity in cell extracts was measured using the luciferase assay system (Promega) following the manufacturer's protocol using a BG-luminometer (Gem Biomedical, Inc., Hamden, Conn.).

[3] = tested on: bone marrow stromal cells (BMSC); test: phospho-ERK in bone marrow stromal cells from wild-type and GPRC6A-/- mice; assay type: cell-based, mouse
Protocol: The femurs and tibias from 8-week-old wild-type and GPRC6A^−/− mice were dissected, the ends of the bones were cut, and marrow was flushed out with 2 mL of ice-cold a-MEM containing 10% FBS using a needle and syringe. A suspension of bone marrow cells was obtained by repeated aspiration of the cell preparation through a 22-gauge needle, and nucleated cells were counted with a hemocytometer. Cells were seeded into 6-well plates at a density of 3×10^7 cells/mL and cultured for three days in a-MEM supplemented with 10% FBS, 100 kU/L of sodium penicillin G and 100 mg/L of streptomycin sulfate in a humidified incubator with 5% CO2 and 95% air at a temperature of 37° C. On day 3, all nonadherent cells were then removed with the first medium change and then the adherent cells (representing bone marrow-derived mesenchymal stem cells, BMSCs) were grown for additional periods of up 3 days in the same medium. After overnight quiescence, the cells were stimulated for 5 minutes by testosterone and p-estradiol at the concentrations as indicated.

[4] = tested on: osteoblastic cells; conditions: 10 nM; cited from earlier work
[5] = molecular target: T1, GPRC6A; parameters: expressed in transfected cells; conditions: in vitro; cited from earlier work
[6] = tested on: LNCaP prostate cancer cell line; conditions: 10 nM, within minutes; cited from earlier work
[7] = tested on: HEK-293 cells; test: phospho-ERK in non-transfected HEK-293 control cells; assay type: cell-based, human; conditions: control HEK293, no GPRC6A
Protocol: as §1

[8] = molecular target: T1, GPRC6A; test: phospho-Src and phospho-Raf-1 western blot, GPRC6A-mediated; assay type: cell-based; parameters: expressed in transfected cells
Source text: Several physiological processes arising as a result of the rapid action of the Src-Ras-ERK signaling pathway in steroids non-genomic action also have been reported. To define the role of GPRC6A in androgen-mediated cell signaling activation, we examine the Src and Raf-1 are involved in GPRC6A-mediated androgen stimulated intercellular signaling pathway.

[9] = molecular target: T2, calcium sensing receptor (CASR) (Rattus norvegicus, UniProt P48442); test: phospho-ERK in HEK-293 cells transfected with calcium sensing receptor; assay type: cell-based; conditions: HEK293 transfected with CASR
T2 construct: expressed in transfected cells; host or cells: HEK-293
T2 sequence (P48442 20-1079): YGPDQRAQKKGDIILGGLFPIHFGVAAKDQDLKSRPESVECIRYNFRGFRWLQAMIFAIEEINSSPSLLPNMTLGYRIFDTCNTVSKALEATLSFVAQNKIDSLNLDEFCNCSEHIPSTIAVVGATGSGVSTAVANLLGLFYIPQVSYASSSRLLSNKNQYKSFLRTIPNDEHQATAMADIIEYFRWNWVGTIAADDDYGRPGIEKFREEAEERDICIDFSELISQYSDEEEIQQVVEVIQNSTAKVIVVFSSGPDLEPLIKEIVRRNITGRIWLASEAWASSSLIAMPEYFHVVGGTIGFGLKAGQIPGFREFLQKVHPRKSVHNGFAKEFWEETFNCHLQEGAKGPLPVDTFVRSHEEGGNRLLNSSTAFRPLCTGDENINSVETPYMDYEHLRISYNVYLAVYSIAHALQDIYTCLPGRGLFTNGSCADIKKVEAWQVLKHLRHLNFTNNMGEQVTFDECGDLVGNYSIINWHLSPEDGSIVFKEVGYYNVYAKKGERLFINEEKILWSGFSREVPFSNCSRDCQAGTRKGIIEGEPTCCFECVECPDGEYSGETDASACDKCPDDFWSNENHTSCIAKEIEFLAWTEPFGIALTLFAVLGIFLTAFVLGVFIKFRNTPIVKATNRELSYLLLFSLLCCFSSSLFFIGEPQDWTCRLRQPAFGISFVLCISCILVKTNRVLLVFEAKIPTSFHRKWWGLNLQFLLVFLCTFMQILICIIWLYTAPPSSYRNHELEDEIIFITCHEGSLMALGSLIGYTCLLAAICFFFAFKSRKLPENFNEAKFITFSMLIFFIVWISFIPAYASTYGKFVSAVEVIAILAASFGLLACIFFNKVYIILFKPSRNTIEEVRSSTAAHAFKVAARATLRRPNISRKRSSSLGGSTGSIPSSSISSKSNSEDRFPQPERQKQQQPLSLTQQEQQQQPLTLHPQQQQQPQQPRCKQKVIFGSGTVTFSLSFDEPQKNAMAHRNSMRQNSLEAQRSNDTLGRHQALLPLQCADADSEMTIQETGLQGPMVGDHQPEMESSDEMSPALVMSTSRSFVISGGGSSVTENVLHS
Protocol: as §1

[10] = BMSC from GPRC6A-/- mice, testosterone up to 80 nM
[11] = HEK-293 cells transfected with GPRC6A

Cn1cc(C2=C(c3cn(CCCSC(=N)N)c4ccccc34)C(=O)NC2=O)c2ccccc21 [Ro31-8220]
block of GPRC6A-mediated extracellular testosterone stimulated signaling [1]: blocked
inhibition of R1881 stimulated GPRC6A-mediated activation of luciferase [2]: inhibited

CC(=O)[C@H]1CC[C@H]2[C@@H]3CCC4=CC(=O)CC[C@]4(C)[C@H]3CC[C@]12C [progesterone]
GPRC6A-mediated activation of phospho-ERK ([1]; concentrations up to 80 nM): no effect

COc1cccc(-c2cc(=O)c3ccccc3o2)c1N [PD89059]
inhibition of testosterone stimulated GPRC6A-mediated activation of phospho-ERK [1]: inhibited
block of GPRC6A-mediated extracellular testosterone stimulated signaling [1]: blocked
inhibition of R1881 stimulated GPRC6A-mediated activation of luciferase [2]: inhibited

COc1ccc2c(c1)CC[C@@H]1[C@@H]2CC[C@]2(C)[C@@H](NCCCCCCN3C(=O)C=CC3=O)CC[C@@H]12 [U73122]
inhibition of testosterone stimulated GPRC6A-mediated activation of phospho-ERK [1]: inhibited

COc1cccc([C@@H](C)NCCCc2ccccc2Cl)c1 [NPS-R568]
stimulation of phospho-ERK in BMSC [3, 10]: failed to responds
stimulation of phospho-ERK in BMSC ([3]; BMSC from wild-type mice): stimulation of ERK phosphorylation

pertussis toxin
block of testosterone and β-estradiol stimulated activation of phospho-ERK ([1]; 100 ng/ml PTx, stimuli at 50 nM): significantly blocked

C[C@]12CC[C@@H]3c4ccc(O)cc4CC[C@H]3[C@@H]1CC[C@@H]2O [17p-estradiol]
GPRC6A-mediated activation of phospho-ERK [1, 11]: stimulated the GPRC6A-mediated activation of phospho-ERK
concentration required to activate GPRC6A (phosphorylation of ERK) [1, 11]: 60 to 80 nM

CC(C)CCC[C@@H](C)[C@H]1CC[C@H]2[C@@H]3CC=C4C[C@@H](O)CC[C@]4(C)[C@H]3CC[C@]12C [cholesterol]
GPRC6A-mediated activation of phospho-ERK [1, 11]: stimulated the GPRC6A-mediated activation of phospho-ERK

C=C1/C(=C\C=C2/CCC[C@]3(C)[C@@H]([C@H](C)CCCC(C)(C)O)CC[C@@H]23)C[C@@H](O)C[C@@H]1O [1,25(OH)2Vit D3]
GPRC6A-mediated activation of phospho-ERK [1, 11]: stimulated the GPRC6A-mediated activation of phospho-ERK

C[C@]12CCC(=O)C[C@@H]1CC[C@@H]1[C@@H]2CC[C@]2(C)[C@@H](O)CC[C@@H]12 [DHT]
Akt activity [4]: stimulation of Akt activity

osteocalcin
functional responses of GPRC6A to extracellular calcium [5]: enhance the functional responses of GPRC6A to extracellular calcium

Cc1ccc(-c2nn(C(C)(C)C)c3ncnc(N)c23)cc1 [PP-1]
inhibition of testosterone stimulated GPRC6A-mediated activation of phospho-ERK [1]: inhibited
block of GPRC6A-mediated extracellular testosterone stimulated signaling [1]: blocked
inhibition of R1881 stimulated GPRC6A-mediated activation of luciferase [2]: inhibited

C[C@]12CC[C@H](O)CC1=CC[C@@H]1[C@@H]2CC[C@]2(C)C(=O)CC[C@@H]12 [DHEA, Dehydroandrosterone]
GPRC6A-mediated activation of phospho-ERK [1, 11]: stimulated the GPRC6A-mediated activation of phospho-ERK

[Ca+2] [extracellular calcium, calcium]
stimulation of phospho-ERK in BMSC [3, 10]: failed to responds
stimulation of phospho-ERK in BMSC ([3]; BMSC from wild-type mice): stimulation of ERK phosphorylation

C[C@]1(O)CC[C@H]2[C@@H]3CCC4=CC(=O)CCC4=C3C=C[C@@]21C [R1881]
Src kinase activity [6]: stimulation of Src kinase activity
phospho-ERK response [7]: did not responded
GPRC6A-mediated activation of phospho-ERK [1, 11]: stimulated extracellular signal-regulated kinase phosphorylation (phospho-ERK) in a dose-dependent fashion
GPRC6A-mediated activation of phospho-Raf-1 [8]: stimulated
GPRC6A-mediated activation of phospho-Src [8]: stimulated GPRC6A-mediated activation of phospho-Src
GPRC6A mediated activation of luciferase ([2]; SRE-luciferase reporter, HEK-293): stimulated the GPRC6A mediated activation of luciferase
phospho-ERK response [9]: did not responded
